Measurements published in US8541426B2, “Pharmaceutical compositions and methods of treating dry eye disorders” (Pfizer Inc., priority 2007, dated 2013).

What was measured:
dry-induced C57 mice = experiment: Induced dry eye mouse model (scopolamine and fans), tear production; type: in vivo; settings: for tear production versus normal tear production values: after 4 days of treatment, induced dry eye mice
Procedure: An injection was prepared comprising 2.5 mg/ml scopolamine (sigma) in injectable saline (1-1.5 ml per animal). In normal C57 mice (200-250) ul of scopolamine was injected four times every 2.5 hrs in alternating hind quarters. The mice were placed in special cages (with holes in front and back) and placed in a hood. Fans were placed in front of each cage, and turned on for 16 hours over night for five days.
Measurements were taken daily.
As with Examples 4 and 5 above, animals were treated with drug or vehicle at 1 μl, once a day for 2 weeks.

MRL/Ipr (Dry Eye) Mice = test system: MRL/Ipr (Dry Eye) Mice
Procedure: To study the level of tear production over time, 10 MRL/Ipr mice and 5 of the age-matched C57 Black/6 control mice at 8 weeks of age were purchased from Jackson Laboratory (Bar Harbor, Me., USA). The mouse strain MRL/Ipr has a mutation which predisposes it to dry eye similar to Sjogren's Syndrome.
Tear production was measured with cotton thread (Quick Zone®) held with forceps and applied to the ocular surface at the lateral canthus for 15 to 30 seconds. Wetting of the thread was measured in millimeters.
C57 mice also received vehicle. Tear volume was measured on days 2, 3, and 6.
Tear measurement was done using phenol red impregnated thread (Quick Zone®) and baseline measurement was performed before each drug application. Drugs or vehicles were applied at 2 μl, two times a day.
Vehicle-treated normal C57black/6 and MRL/Ipr dry eye mice were used as normal control and dry eye control, respectively.
Control animals included normal C57Black/6 mice, and MRL/Ipr mice, treated with PBS vehicle and MRL/Ipr mice treated with Refresh Endura® (vehicle for Restasis) (5-10 mice/group).
As with Example 4 above, vehicle-treated normal C57black/6 and MRL/Ipr dry eye mice (5-10 mice/group) were used as normal control and dry eye control, respectively. […] Treatment for Formulation 1 was carried for two weeks, at 2 μl, twice a day.

[1] = CP-690550 0.01% vs Restasis (cyclosporine 0.05%), twice a day for 30 days, MRL/Ipr mice (FIG. 3)

## C[C@@H]1CCN(C(=O)CC#N)C[C@@H]1N(C)c1ncnc2[nH]ccc12 [CP0690550, 3-{(3R,4R)-4-Methyl-3-[methyl-(7H-pyrrolo[2,3-d]pyrimidin-4-yl)-amino]-piperidin-1-yl}-3-oxo-propionitrile]
dry-induced C57 mice; 0.003% in Formulation 5, once a day
  tear production versus normal tear production values: approximated normal tear production values
dry-induced C57 mice; 0.01% (w/w) in Formulation 3, once a day
  tear production versus normal tear production values: approximated normal tear production values
dry-induced C57 mice; Formulations 3 and 5, 1 μl once a day, at 2 days of treatment, induced dry eye mice (FIGS. 7 and 8)
  increase in tear production: significant increase
MRL/Ipr (Dry Eye) Mice; 0.01% (w/w) in Formulation 1 vehicle, twice a day, within 8 days, MRL/Ipr mice (FIG. 4)
  tear production comparable to normal: within x% of tear production by C57 normal mice: 5 to 10%
MRL/Ipr (Dry Eye) Mice; 0.1% (w/w) twice a day, topical, MRL/Ipr mice, within the first 2 days of application (FIG. 2)
  increase of tear production volume: significantly increase
MRL/Ipr (Dry Eye) Mice; [1]
  response rate as compared to Restasis: much faster response rate
  volume of tear production over Restasis: significant improvement
MRL/Ipr (Dry Eye) Mice; all comparisons (Formulations 1, 3 and 4 vehicle, FIGS. 4-6), 2 days after treatment, MRL/Ipr mice
  improvement in tear production: significant improvement
MRL/Ipr (Dry Eye) Mice; ultimately reached, MRL/Ipr mice, FIGS. 3 and 4
  tear production volume comparable to normal: within x% of tear production by normal C57 mice: 5 to 10%
